Assay results taken from PubChem BioAssay AID1982 (Sanford-Burnham Center for Chemical Genomics, 2009).
Calls of active or inactive are those of the source. How the calls were made is not given here.

Columns and labels:
Test in all cases: kinase panel binding selectivity, selectivity assay, biochemical, KINOMEscan (AID 1982)
[1] = target: Wee1-like protein kinase 2 (Homo sapiens) (UniProt P0C1S8); conditions: KINOMEscan 353-kinase binding panel, qPCR; WEE2; at 10 µM; stronger effect = lower value
[2] = test system: TNIK; conditions: KINOMEscan 353-kinase binding panel, qPCR, at 10 µM, stronger effect = lower value
[3] = target: Focal adhesion kinase 1 (Homo sapiens) (UniProt Q05397); conditions: KINOMEscan 353-kinase binding panel, qPCR; PTK2; at 10 µM; stronger effect = lower value
[4] = test system: RPS6KA6(Kin.Dom.2); conditions: KINOMEscan 353-kinase binding panel, qPCR, at 10 µM, stronger effect = lower value
[5] = target: Glycogen synthase kinase-3 beta (Homo sapiens) (UniProt P49841); conditions: KINOMEscan 353-kinase binding panel, qPCR; GSK3B; at 10 µM; stronger effect = lower value
[6] = target: Cyclin-dependent kinase 7 (Homo sapiens) (UniProt P50613); conditions: KINOMEscan 353-kinase binding panel, qPCR; CDK7; at 10 µM; stronger effect = lower value
[7] = test system: PAK3; conditions: KINOMEscan 353-kinase binding panel, qPCR, at 10 µM, stronger effect = lower value
[8] = test system: PRKR; conditions: KINOMEscan 353-kinase binding panel, qPCR, at 10 µM, stronger effect = lower value
[9] = test system: PRKCH; conditions: KINOMEscan 353-kinase binding panel, qPCR, at 10 µM, stronger effect = lower value
[10] = test system: PCTK1; conditions: KINOMEscan 353-kinase binding panel, qPCR, at 10 µM, stronger effect = lower value
[11] = test system: MYO3A; conditions: KINOMEscan 353-kinase binding panel, qPCR, at 10 µM, stronger effect = lower value
[12] = test system: NEK6; conditions: KINOMEscan 353-kinase binding panel, qPCR, at 10 µM, stronger effect = lower value
[13] = target: Mitogen-activated protein kinase kinase kinase 5 (Homo sapiens) (UniProt Q99683); conditions: KINOMEscan 353-kinase binding panel, qPCR; MAP3K5; at 10 µM; stronger effect = lower value
[14] = test system: CDC2L2; conditions: KINOMEscan 353-kinase binding panel, qPCR, at 10 µM, stronger effect = lower value
[15] = target: Tyrosine-protein kinase BTK (Homo sapiens) (UniProt Q06187); conditions: KINOMEscan 353-kinase binding panel, qPCR, at 10 µM, stronger effect = lower value
[16] = test system: MERTK; conditions: KINOMEscan 353-kinase binding panel, qPCR, at 10 µM, stronger effect = lower value
[17] = target: Receptor-type tyrosine-protein kinase FLT3 (Homo sapiens) (UniProt P36888); conditions: KINOMEscan 353-kinase binding panel, qPCR, at 10 µM, stronger effect = lower value
[18] = target: Calcium/calmodulin-dependent protein kinase kinase 2 (Homo sapiens) (UniProt Q96RR4); conditions: KINOMEscan 353-kinase binding panel, qPCR; CAMKK2; at 10 µM; stronger effect = lower value
[19] = test system: LIMK2; conditions: KINOMEscan 353-kinase binding panel, qPCR, at 10 µM, stronger effect = lower value
[20] = target: Serine/threonine-protein kinase pim-2 (Homo sapiens) (UniProt Q9P1W9); conditions: KINOMEscan 353-kinase binding panel, qPCR; PIM2; at 10 µM; stronger effect = lower value
[21] = target: Dual specificity protein kinase CLK1 (Homo sapiens) (UniProt P49759); conditions: KINOMEscan 353-kinase binding panel, qPCR, at 10 µM, stronger effect = lower value
[22] = test system: ARK5; conditions: KINOMEscan 353-kinase binding panel, qPCR, at 10 µM, stronger effect = lower value
[23] = target: Calcium/calmodulin-dependent protein kinase type II subunit gamma (Homo sapiens) (UniProt Q13555); conditions: KINOMEscan 353-kinase binding panel, qPCR; CAMK2G; at 10 µM; stronger effect = lower value
[24] = target: RAC-gamma serine/threonine-protein kinase (Homo sapiens) (UniProt Q9Y243); conditions: KINOMEscan 353-kinase binding panel, qPCR; AKT3; at 10 µM; stronger effect = lower value
[25] = target: Uncharacterized serine/threonine-protein kinase SBK3 (Homo sapiens) (UniProt P0C264); conditions: KINOMEscan 353-kinase binding panel, qPCR; SgK110; at 10 µM; stronger effect = lower value
[26] = test system: AURKC; conditions: KINOMEscan 353-kinase binding panel, qPCR, at 10 µM, stronger effect = lower value
[27] = test system: ACVR2A; conditions: KINOMEscan 353-kinase binding panel, qPCR, at 10 µM, stronger effect = lower value
[28] = target: Serine/threonine-protein kinase NLK (Homo sapiens) (UniProt Q9UBE8); conditions: KINOMEscan 353-kinase binding panel, qPCR, at 10 µM, stronger effect = lower value
[29] = test system: MYLK; conditions: KINOMEscan 353-kinase binding panel, qPCR, at 10 µM, stronger effect = lower value
[30] = target: Mitogen-activated protein kinase kinase kinase kinase 5 (Homo sapiens) (UniProt Q9Y4K4); conditions: KINOMEscan 353-kinase binding panel, qPCR; MAP4K5; at 10 µM; stronger effect = lower value
[31] = test system: ACVRL1; conditions: KINOMEscan 353-kinase binding panel, qPCR, at 10 µM, stronger effect = lower value
[32] = target: cAMP-dependent protein kinase catalytic subunit alpha (Homo sapiens) (UniProt P17612); conditions: KINOMEscan 353-kinase binding panel, qPCR; PKAC-alpha; at 10 µM; stronger effect = lower value
[33] = target: Dual specificity tyrosine-phosphorylation-regulated kinase 1B (Homo sapiens) (UniProt Q9Y463); conditions: KINOMEscan 353-kinase binding panel, qPCR; DYRK1B; at 10 µM; stronger effect = lower value
Chain of Dual specificity tyrosine-phosphorylation-regulated kinase 1B (Homo sapiens) (Q9Y463 whole entry, looked up): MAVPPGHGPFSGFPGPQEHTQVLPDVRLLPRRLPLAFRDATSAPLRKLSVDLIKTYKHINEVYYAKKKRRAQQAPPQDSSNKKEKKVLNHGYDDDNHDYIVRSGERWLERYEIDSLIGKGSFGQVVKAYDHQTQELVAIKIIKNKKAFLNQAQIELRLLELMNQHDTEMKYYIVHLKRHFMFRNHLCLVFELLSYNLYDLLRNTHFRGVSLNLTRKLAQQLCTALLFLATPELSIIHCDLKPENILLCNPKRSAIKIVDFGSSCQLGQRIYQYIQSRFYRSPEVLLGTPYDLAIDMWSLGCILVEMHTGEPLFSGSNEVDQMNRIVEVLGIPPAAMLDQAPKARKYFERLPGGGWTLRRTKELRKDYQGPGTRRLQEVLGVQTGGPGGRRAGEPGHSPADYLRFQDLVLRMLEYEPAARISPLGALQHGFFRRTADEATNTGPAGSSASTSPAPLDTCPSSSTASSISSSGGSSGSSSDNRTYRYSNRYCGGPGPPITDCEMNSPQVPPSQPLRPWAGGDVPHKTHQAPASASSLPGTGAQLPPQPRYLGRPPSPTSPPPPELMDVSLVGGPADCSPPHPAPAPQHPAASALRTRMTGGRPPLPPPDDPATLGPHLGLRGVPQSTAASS

Chain of Receptor-type tyrosine-protein kinase FLT3 (Homo sapiens) (P36888 whole entry, looked up): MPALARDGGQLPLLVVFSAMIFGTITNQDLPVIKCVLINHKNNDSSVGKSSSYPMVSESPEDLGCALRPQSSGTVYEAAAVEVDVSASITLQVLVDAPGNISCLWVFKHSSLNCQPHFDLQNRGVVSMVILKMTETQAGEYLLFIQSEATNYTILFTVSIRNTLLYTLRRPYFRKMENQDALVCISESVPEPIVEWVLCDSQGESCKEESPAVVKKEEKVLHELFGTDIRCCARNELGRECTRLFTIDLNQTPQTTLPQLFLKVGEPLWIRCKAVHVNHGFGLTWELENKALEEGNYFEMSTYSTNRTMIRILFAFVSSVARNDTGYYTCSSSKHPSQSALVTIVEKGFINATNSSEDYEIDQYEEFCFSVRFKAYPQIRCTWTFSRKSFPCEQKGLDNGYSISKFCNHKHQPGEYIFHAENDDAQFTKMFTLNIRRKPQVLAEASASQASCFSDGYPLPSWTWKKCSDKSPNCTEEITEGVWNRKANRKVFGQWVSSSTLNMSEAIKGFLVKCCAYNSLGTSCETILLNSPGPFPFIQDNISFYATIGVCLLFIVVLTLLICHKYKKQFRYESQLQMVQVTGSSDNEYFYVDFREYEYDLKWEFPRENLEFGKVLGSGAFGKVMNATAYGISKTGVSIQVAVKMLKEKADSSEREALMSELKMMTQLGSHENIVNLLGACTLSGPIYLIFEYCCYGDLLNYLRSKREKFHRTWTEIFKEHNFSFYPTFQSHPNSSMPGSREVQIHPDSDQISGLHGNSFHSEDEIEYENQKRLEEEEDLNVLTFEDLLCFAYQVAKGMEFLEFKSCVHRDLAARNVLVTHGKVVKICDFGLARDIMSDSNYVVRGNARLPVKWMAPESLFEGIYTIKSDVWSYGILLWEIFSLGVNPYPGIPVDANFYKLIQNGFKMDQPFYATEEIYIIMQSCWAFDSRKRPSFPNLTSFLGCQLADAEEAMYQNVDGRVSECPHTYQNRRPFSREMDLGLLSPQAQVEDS
Chain of Wee1-like protein kinase 2 (Homo sapiens) (P0C1S8 whole entry, looked up): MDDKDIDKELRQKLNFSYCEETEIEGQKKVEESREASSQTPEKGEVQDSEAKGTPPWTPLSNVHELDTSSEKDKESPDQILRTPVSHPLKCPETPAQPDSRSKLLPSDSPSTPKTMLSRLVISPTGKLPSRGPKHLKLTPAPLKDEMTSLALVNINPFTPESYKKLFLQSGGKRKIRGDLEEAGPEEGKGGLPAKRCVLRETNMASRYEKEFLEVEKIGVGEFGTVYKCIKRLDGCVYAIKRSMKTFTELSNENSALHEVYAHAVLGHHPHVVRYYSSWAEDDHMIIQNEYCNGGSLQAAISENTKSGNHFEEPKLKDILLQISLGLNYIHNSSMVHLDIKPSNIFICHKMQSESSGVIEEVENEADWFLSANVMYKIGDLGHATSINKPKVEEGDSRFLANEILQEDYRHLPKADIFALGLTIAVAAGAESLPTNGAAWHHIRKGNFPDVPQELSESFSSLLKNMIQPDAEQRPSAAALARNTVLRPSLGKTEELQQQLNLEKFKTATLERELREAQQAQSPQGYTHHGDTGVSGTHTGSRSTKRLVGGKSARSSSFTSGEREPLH
Chain of Mitogen-activated protein kinase kinase kinase 5 (Homo sapiens) (Q99683 whole entry, looked up): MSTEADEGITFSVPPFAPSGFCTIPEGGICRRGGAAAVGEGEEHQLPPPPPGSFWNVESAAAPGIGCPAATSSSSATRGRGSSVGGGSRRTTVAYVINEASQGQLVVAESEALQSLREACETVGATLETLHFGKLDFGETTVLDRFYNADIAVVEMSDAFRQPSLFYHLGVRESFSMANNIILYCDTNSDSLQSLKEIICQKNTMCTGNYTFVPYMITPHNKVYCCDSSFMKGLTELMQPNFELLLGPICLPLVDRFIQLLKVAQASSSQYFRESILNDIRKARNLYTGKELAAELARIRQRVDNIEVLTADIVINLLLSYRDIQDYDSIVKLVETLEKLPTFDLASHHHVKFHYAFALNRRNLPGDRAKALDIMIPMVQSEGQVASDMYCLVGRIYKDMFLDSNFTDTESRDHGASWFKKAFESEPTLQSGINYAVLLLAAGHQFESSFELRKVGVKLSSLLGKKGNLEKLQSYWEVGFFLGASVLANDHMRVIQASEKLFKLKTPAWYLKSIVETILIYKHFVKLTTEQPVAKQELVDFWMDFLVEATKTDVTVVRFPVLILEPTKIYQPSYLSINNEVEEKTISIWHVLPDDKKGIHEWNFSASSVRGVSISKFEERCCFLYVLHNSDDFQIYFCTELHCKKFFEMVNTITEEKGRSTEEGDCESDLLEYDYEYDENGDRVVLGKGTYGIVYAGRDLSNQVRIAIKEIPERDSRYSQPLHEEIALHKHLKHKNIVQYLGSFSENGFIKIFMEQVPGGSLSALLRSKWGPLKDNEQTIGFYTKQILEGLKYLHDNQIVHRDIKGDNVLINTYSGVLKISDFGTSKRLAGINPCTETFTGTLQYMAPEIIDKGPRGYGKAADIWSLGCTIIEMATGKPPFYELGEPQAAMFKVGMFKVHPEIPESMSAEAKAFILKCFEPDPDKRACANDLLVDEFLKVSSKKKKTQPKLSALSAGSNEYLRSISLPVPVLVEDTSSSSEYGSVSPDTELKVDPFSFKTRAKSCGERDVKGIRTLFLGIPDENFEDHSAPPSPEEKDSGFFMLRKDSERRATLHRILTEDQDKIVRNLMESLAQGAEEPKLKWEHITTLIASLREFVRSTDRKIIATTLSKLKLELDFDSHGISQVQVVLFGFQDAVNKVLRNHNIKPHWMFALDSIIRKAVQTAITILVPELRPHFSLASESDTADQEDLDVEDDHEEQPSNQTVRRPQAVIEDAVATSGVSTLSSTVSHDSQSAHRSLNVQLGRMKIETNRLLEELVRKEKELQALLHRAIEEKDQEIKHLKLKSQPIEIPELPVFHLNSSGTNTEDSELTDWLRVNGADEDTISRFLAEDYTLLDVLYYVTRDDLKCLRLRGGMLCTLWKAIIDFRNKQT
Chain of Dual specificity protein kinase CLK1 (Homo sapiens) (P49759 whole entry, looked up): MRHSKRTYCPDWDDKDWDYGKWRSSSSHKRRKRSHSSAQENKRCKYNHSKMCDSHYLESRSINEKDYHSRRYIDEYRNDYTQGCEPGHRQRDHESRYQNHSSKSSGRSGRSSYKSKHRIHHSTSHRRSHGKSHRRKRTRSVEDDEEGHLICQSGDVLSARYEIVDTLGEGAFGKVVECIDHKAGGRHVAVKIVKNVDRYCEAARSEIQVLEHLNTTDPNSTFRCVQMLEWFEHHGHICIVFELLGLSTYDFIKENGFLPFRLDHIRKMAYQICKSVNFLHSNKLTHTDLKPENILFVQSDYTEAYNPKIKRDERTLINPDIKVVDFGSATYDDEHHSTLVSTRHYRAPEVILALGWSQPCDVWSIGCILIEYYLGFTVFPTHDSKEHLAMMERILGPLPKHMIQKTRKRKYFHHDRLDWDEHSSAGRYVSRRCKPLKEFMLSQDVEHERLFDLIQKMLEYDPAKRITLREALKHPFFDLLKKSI
Chain of Calcium/calmodulin-dependent protein kinase kinase 2 (Homo sapiens) (Q96RR4 whole entry, looked up): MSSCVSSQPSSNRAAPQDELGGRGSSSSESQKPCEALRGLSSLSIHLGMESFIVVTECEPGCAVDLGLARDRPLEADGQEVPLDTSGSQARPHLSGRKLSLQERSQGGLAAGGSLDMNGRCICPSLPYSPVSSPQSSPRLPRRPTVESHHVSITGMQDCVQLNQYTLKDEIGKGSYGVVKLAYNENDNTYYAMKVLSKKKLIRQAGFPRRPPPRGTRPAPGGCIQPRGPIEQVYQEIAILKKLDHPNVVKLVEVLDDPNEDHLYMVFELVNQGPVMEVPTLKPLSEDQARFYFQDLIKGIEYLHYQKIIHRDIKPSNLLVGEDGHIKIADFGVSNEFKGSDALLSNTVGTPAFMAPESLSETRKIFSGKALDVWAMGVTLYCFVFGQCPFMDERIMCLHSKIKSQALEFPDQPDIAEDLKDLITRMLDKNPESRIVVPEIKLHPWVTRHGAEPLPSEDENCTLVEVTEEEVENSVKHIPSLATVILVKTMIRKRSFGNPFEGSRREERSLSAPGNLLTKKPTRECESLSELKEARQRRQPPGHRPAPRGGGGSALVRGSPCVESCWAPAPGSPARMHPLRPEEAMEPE
Chain of Glycogen synthase kinase-3 beta (Homo sapiens) (P49841 whole entry, looked up): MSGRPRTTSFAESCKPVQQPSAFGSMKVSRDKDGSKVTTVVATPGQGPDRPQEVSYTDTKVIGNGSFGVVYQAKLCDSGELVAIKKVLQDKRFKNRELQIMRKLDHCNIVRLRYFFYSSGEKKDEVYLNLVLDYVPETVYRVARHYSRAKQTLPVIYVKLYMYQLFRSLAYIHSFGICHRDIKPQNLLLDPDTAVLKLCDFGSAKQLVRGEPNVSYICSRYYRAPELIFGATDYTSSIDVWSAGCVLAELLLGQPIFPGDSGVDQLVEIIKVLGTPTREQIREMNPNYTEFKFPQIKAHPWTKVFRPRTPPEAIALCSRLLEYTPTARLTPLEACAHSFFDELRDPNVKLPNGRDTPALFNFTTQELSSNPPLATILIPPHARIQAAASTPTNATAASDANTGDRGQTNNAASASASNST

percent of control binding [1]: 100% (inactive)
percent of control binding [2]: 100% (inactive)
percent of control binding [3]: 100% (inactive)
percent of control binding [4]: 100% (inactive)
percent of control binding [5]: 100% (inactive)
percent of control binding [6]: 64% (inactive)
percent of control binding [7]: 79% (inactive)
percent of control binding [8]: 98% (inactive)
percent of control binding [9]: 100% (inactive)
percent of control binding [10]: 84% (inactive)
percent of control binding [11]: 89% (inactive)
percent of control binding [12]: 93% (inactive)
percent of control binding [13]: 100% (inactive)
percent of control binding [14]: 100% (inactive)
percent of control binding [15]: 85% (inactive)
percent of control binding [16]: 100% (inactive)
percent of control binding [17]: 100% (inactive)
percent of control binding ([17]; FLT3(D835H)): 100% (inactive)
percent of control binding ([17]; FLT3(D835Y)): 99% (inactive)
percent of control binding ([17]; FLT3(ITD)): 100% (inactive)
percent of control binding ([17]; FLT3(K663Q)): 100% (inactive)
percent of control binding ([17]; FLT3(N841I)): 94% (inactive)
percent of control binding [18]: 100% (inactive)
percent of control binding [19]: 80% (inactive)
percent of control binding [20]: 94% (inactive)
percent of control binding [21]: 98% (inactive)
percent of control binding [22]: 100% (inactive)
percent of control binding [23]: 100% (inactive)
percent of control binding [24]: 100% (inactive)
percent of control binding [25]: 96% (inactive)
percent of control binding [26]: 100% (inactive)
percent of control binding [27]: 88% (inactive)
percent of control binding [28]: 100% (inactive)
percent of control binding [29]: 80% (inactive)
percent of control binding [30]: 83% (inactive)
percent of control binding [31]: 100% (inactive)
percent of control binding [32]: 94% (inactive)
percent of control binding [33]: 91% (inactive)
Structure (SMILES): Cc1cc2nc(NCCCO)n(CC(=O)c3cc(C(C)(C)C)c(O)c(C(C)(C)C)c3)c2cc1C
